Values of other authors in patent US20040063806A1, “Antimicrobial polyalphaolefin composition” (priority 2000, published 2004).
Like-named read-outs stand apart in the source and are kept apart here.

Assays:
[1] = test system: Bacillus cereus; settings: origin A, medium NA
[2] = test system: Bacillus subtilis; settings: Bacillus subtilis NCTC 8236, medium NA
[3] = test system: Clostridium perfringens; settings: Clostridium perfringens NCTC 3110, medium EA
[4] = test system: Corynebacterium diphtherias; settings: Corynebacterium diphtherias NCTC 3984, medium BHI-A
[5] = test system: Corynebacterium minutissimum; settings: Corynebacterium minutissimum ATCC 23348, medium BHI-A
[6] = test system: Corynebacterium xerosis; settings: Corynebacterium xerosis ATCC 373, medium M-H
[7] = test system: Enterococcus faecalis
[8] = test system: Enterococcus faecium
[9] = test system: Lactobacillus rhamnosus; settings: Lactobacillus rhamnosus NCTC 7469, medium MACA
[10] = test system: Micrococcus luteus; settings: Micrococcus luteus ATCC 7468, medium M-H
[11] = test system: Mycobacterium phlei; settings: origin A, medium BHI-A
[12] = test system: Nocardia asteroides; settings: Nocardia asteroides NCTC 6761, medium BHI-A
[13] = test system: Sarcina lutee; settings: Sarcina lutee NCTC 196, medium BHI-A
[14] = test system: Sporosarcina urea; settings: Sporosarcina urea ATCC 6473, medium BHI-A
[15] = test system: Staphylococcus aureus
[16] = test system: Staphylococcus albus; settings: Staphylococcus albus NCTC 7292, medium NA
[17] = test system: Staphylococcus hominis; settings: Staphylococcus hominis ATCC 27844, medium M-H
[18] = test system: Staphylococcus lactis; settings: Staphylococcus lactis NCTC 8340, medium NA
[19] = test system: Streptococcus pneumoniae; settings: Streptococcus pneumoniae ATCC 33400, medium M-H
[20] = test system: Streptococcus saprophyticus; settings: Streptococcus saprophyticus ATCC 15305, medium M-H
[21] = test system: Alcaligenes faecalis; settings: origin A, medium NA
[22] = test system: Bacteroides fragilis; settings: Bacteroides fragilis ATCC 23745, medium M-H
[23] = test system: Enterobacter aerogenes; settings: Enterobacter aerogenes ATCC 13048, medium M-H
[24] = test system: Klebsiella edwardsii; settings: Klebsiella edwardsii NCTC 7242, medium NA
[25] = test system: Loefferella mallei; settings: Loefferella mallei NCTC 9674, medium NA
[26] = test system: Moraxella glucidolytica; settings: origin A, medium NA
[27] = test system: Moraxella lwolffii; settings: origin A, medium NA
[28] = test system: Proteus mirabilis; settings: Proteus mirabilis ATCC 14153, medium M-H
[29] = test system: Pseudomonas fluorescencens; settings: Pseudomonas fluorescencens NCTC 4755, medium NA
[30] = test system: Salmonella paratyphi A; settings: Salmonella paratyphi A NCTC 5322, medium NA
[31] = test system: Salmonella typhimurium; settings: Salmonella typhimurium NCTC 5710, medium NA
[32] = test system: Shigella flexneri
[33] = test system: Aspergillus fumigatus; settings: Aspergillus fumigatus ATCC 9197, medium SMA
[34] = test system: Aspergillus niger; settings: Aspergillus niger ATCC 6275, medium M
[35] = test system: Candida tropicalis
[36] = test system: Keratinomyces ajelloi; settings: origin A, medium SMA
[37] = test system: Trichophyton mentsgrophytes; settings: Trichophyton mentsgrophytes ATCC 9533, medium SMA
[38] = test system: Trochophyton tonsurans; settings: origin A, medium SMA

SMILES: Oc1cc(Cl)ccc1Oc1ccc(Cl)cc1Cl [IRGAGUARD B 1000, 2,4,4′-trichloro-2′-hydroxydiphenyl ether]
- Microbiostatic effect [1]: 3.0 ppm
- Microbiostatic effect [2]: 0.1 ppm
- Microbiostatic effect [3]: 10.0 ppm
- Microbiostatic effect [4]: 3.0 ppm
- Microbiostatic effect [5]: 3.0 ppm
- Microbiostatic effect [6]: 5.0 ppm
- Microbiostatic effect ([7]; Enterococcus faecalis ATCC 6055, medium M-H): 5.0 ppm
- Microbiostatic effect ([7]; Enterococcus faecalis ATCC 29212, medium M-H): 4.0 ppm
- Microbiostatic effect ([7]; Enterococcus faecalis NCTC 12201, medium M-H, Varicomycin resistant): 5.0 ppm
- Microbiostatic effect ([7]; Enterococcus faecalis NCTC 12203, medium M-H, Varicomycin resistant): 5.0 ppm
- Microbiostatic effect ([8]; Enterococcus faecium ATCC 10541, medium BHI-A): 3.0 ppm
- Microbiostatic effect ([8]; Enterococcus faedium ATCC 6057, medium M-H): 4.0 ppm
- Microbiostatic effect ([8]; Enterococcus faedium NCTC 8619, medium BHI-A): 10.0 ppm
- Microbiostatic effect [9]: 33.0 ppm
- Microbiostatic effect [10]: 4.0 ppm
- Microbiostatic effect [11]: 0.3 ppm
- Microbiostatic effect [12]: 3.0 ppm
- Microbiostatic effect [13]: 3.0 ppm
- Microbiostatic effect [14]: 0.1 ppm
- Microbiostatic effect ([15]; Staphylococcus aureus ATCC 6538, medium NA): 0.01 ppm
- Microbiostatic effect ([15]; Staphylococcus aureus ATCC 9144, medium M-H): 0.05 ppm
- Microbiostatic effect ([15]; Staphylococcus aureus ATCC 13709, medium NA): 0.01 ppm
- Microbiostatic effect ([15]; Staphylococcus aureus ATCC 29213, medium M-H): <0.125 ppm
- Microbiostatic effect ([15]; Staphylococcus aureus NCTC 6571, medium NA): 0.03 ppm
- Microbiostatic effect ([15]; Staphylococcus aureus NCTC 6966, medium NA): 0.1 ppm
- Microbiostatic effect ([15]; Staphylococcus aureus NCTC 10443, medium M-H, Methicillin resistant): 0.01 ppm
- Microbiostatic effect ([15]; Staphylococcus aureus NCTC 10703, medium M-H, Methicillin resistant): 0.01 ppm
- Microbiostatic effect ([15]; Staphylococcus aureus NCTC 11150, medium M-H, Methicillin resistant): 0.02 ppm
- Microbiostatic effect ([15]; Staphylococcus aureus NCTC 11940, medium M-H, Methicillin resistant): 0.01 ppm
- Microbiostatic effect ([15]; Staphylococcus aureus NCTC 12232, medium M-H, Methicillin resistant): 0.01 ppm
- Microbiostatic effect ([15]; Staphylococcus aureus NCTC 12493, medium M-H, Methicillin resistant): 0.01 ppm
- Microbiostatic effect ([15]; Staphylococcus aureus NCTC 12497, medium M-H, Methicillin resistant): 0.01 ppm
- Microbiostatic effect [16]: 0.1 ppm
- Microbiostatic effect [17]: 1.0 ppm
- Microbiostatic effect [18]: 3.0 ppm
- Microbiostatic effect [19]: 4.0 ppm
- Microbiostatic effect [20]: 0.125 ppm
- Microbiostatic effect [21]: >100 ppm
- Microbiostatic effect [22]: 2.0 ppm
- Microbiostatic effect [23]: 0.5 ppm
- Microbiostatic effect [24]: 0.3 ppm
- Microbiostatic effect [25]: 0.3 ppm
- Microbiostatic effect [26]: 0.3 ppm
- Microbiostatic effect [27]: 0.1 ppm
- Microbiostatic effect [28]: 0.5 ppm
- Microbiostatic effect [29]: >100 ppm
- Microbiostatic effect [30]: 0.3 ppm
- Microbiostatic effect [31]: 0.3 ppm
- Microbiostatic effect ([32]; Shigella flexneri NCTC 8192, medium NA): 0.3 ppm
- Microbiostatic effect ([32]; Shigella flexneri NCTC 8204, medium NA): 0.1 ppm
- Microbiostatic effect [33]: 10 ppm
- Microbiostatic effect [34]: 30 ppm
- Microbiostatic effect ([35]; Candida tropicalis DSM 1346, medium M-H): 10 ppm
- Microbiostatic effect ([35]; Candida tropicalis, origin A, medium SMA): 10 ppm
- Microbiostatic effect [36]: 10 ppm
- Microbiostatic effect [37]: 1 ppm
- Microbiostatic effect [38]: 10 ppm
